Assay results taken from patent publication EP4653437A2 (Innovo Therapeutics Inc., priority 2023, dated 2024).

Tests used:
[1] = molecular target: T1, human 15-PGDH (Homo sapiens, UniProt P15428); assay: Evaluation of 15-PGDH inhibitory activity (fluorescence enzyme assay, NAD+/PGE2); type: biochemical; details: human 15-PGDH enzyme, fluorescence Vmax
T1 construct: purchased R&D System 5660-DH
T1 sequence (P15428 1-266): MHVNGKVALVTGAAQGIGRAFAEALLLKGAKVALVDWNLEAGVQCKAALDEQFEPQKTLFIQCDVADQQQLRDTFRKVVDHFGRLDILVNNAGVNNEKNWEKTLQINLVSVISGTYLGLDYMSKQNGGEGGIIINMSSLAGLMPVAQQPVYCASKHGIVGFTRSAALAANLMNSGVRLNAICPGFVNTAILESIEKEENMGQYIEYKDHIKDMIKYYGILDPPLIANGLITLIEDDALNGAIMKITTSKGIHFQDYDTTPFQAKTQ
Method: 15-PGDH inhibition activity of Example compounds was measured as follows. 6.7 ng of human 15-PGDH (R&D System# 5660-DH) enzyme (10 µL) was added to a black 96 well plate, 60 µL of buffer (50 mM Tris-HCl, pH 7.5, 0.01% Tween 20) was added, and 10 µL of 200 µM β-Nicotinamide adenine dinucleotide sodium salt (Sigma, Cat# N0632-5G) was added. 10 µL of (10x) compound solution in DMSO was added and reacted for 10 minutes at room temperature.

[2] = system: A549 cells; assay: Measurement of PGE2-increasing activity in A549 cells (IL-1β stimulated, PGE2 quantified in supernatant); type: cell-based; details: Homo sapiens, 24 h; concentration of 1 µM of each compound; IL-1β treated A549 cells; read-out: Increased PGE2 production in A549 cells
Method: A549 cells were prepared at a cell number of 1 x 10^5/mL in F12K medium containing 10% FBS (Fetal Bovine Serum), and 2 x 10^4/200 µL was added to each well of a 96-well cell culture plate, and then cultured in an incubator with 5% CO2 at 37 °C for 24 hours. After the culture was complete and all F12K medium was removed, all wells were washed once with 100 µL of PBS, and treated with 160 µL of serum-free F12K medium. Then, 20 µL of IL-1β diluted 10-fold to a concentration of 1 ng/mL in serum-free F12K medium was treated to wells to be treated with IL-1β, and 20 µL of serum-free F12K medium was treated to wells not treated with IL-1β. For the wells to be treated with the compound, 20 µL of the compound dissolved in 100% DMSO was diluted to a concentration 10 times of the desired compound concentration in serum-free F12K medium so that the final DMSO concentration treated to the cells was 0.1%, and for the wells not to be treated with the compound, 20 µL of DMSO diluted in serum-free F12K medium so that the final DMSO concentration treated to the cells was 0.1% was treated. In order to confirm the increase or decrease in the secretion amount of PGE2 in the supernatant collected after culturing for 24 hours in an incubator with 5% CO2 at 37 °C, PGE2 was quantified using the Prostaglandin E2 Parameter (SKGE004B).

IC50 [1] [nM]	Compound	fold induction at 1 µM [2]
≤ 100	O=C(c1ccc(-c2cccc3c(C(=O)N4CCCCC4)cnn23)cn1)N1CC(F)(F)C1 [Example 237, (3,3-difluoroazetidin-1-yl)-[5-[3-(piperidine-1-carbonyl)pyrazolo[1,5-a]pyridin-7-yl]-2-pyridyl]methanone]	> 1.5
≤ 100	O=C(c1cnn2c(-c3csc4ccccc34)cccc12)N1CCCCC1 [Example 124, (7-(benzo[b]thiophen-3-yl)pyrazolo[1,5-a]pyridin-3-yl)(piperidin-1-yl)methanone]	> 1.5
≤ 100	CCC1CCCN(C(=O)c2cnn3c(-c4ccc5c(c4)C(=O)NC5)cccc23)C1 (centres unmarked) [Example 393, 6-(3-(3-ethylpiperidine-1-carbonyl)pyrazolo[1,5-a]pyridin-7-yl)isoindolin-1-one]	> 1.5
≤ 100	Nc1ccc(-c2cccc3c(C(=O)N4CCCCC4)cnn23)cn1 [Example 17, (7-(6-aminopyridin-3-yl)pyrazolo[1,5-a]pyridin-3-yl)(piperidin-1-yl)methanone]	< 1.5
≤ 100	O=C(c1cnn2c(-c3ccc4cn[nH]c(=O)c4c3)cccc12)N1CCCCC1 [Example 224, 7-(3-(piperidine-1-carbonyl)pyrazolo[1,5-a]pyridin-7-yl)phthalazin-1(2H)-one]	> 1.5
≤ 100	O=C1NCc2ccc(-c3cccc4c(C(=O)N5CCC6(CCC6)C5)cnn34)cc21 [Example 391, 6-(3-(6-azaspiro[3.4]octane-6-carbonyl)pyrazolo[1,5-a]pyridin-7-yl)isoindolin-1-one]	> 1.5
≤ 100	O=C(c1cnn2c(-c3ccc(N4CC5CCC4CC5)nc3)cccc12)N1CCCCC1 [Example 216, (7-(6-(2-azabicyclo[2.2.2]octan-2-yl)pyridin-3-yl)pyrazolo[1,5-a]pyridin-3-yl)(piperidin-1-yl)methanone]	> 1.5
≤ 100	O=C(c1cnn2c(-c3ccc(F)c(-c4noc(=O)[nH]4)c3)cccc12)N1CCCCC1 [Example 275, 3-[2-fluoro-5-[3-(piperidine-1-carbonyl)pyrazolo[1,5-a]pyridin-7-yl]phenyl]-4H-1,2,4-oxadiazol-5-one]	> 1.5
≤ 100	O=C(Cc1ccc(C(F)(F)F)nc1)Nc1cncc(-c2cccc3c(C(=O)N4CCCCC4)cnn23)c1 [Example 388, N-(5-(3-(piperidine-1-carbonyl)pyrazolo[1,5-a]pyridin-7-yl)pyridin-3-yl)-2-(6-(trifluoromethyl)pyridin-3-yl)acetamide]	> 1.5
≤ 100	Cc1nc(-c2c(F)cc(-c3cccc4c(C(=O)N5CCCCC5)cnn34)cc2F)no1 [Example 328, (7-(3,5-difluoro-4-(5-methyl-1,2,4-oxadiazol-3-yl)phenyl)pyrazolo[1,5-a]pyridin-3-yl)(piperidin-1-yl)methanone]	> 1.5
≤ 100	Cc1nc(-c2cc(-c3cccc4c(C(=O)N5CCCCC5)cnn34)cc([N+](=O)[O-])c2)no1 [Example 330, (7-(3-(5-methyl-1,2,4-oxadiazol-3-yl)-5-nitrophenyl)pyrazolo[1,5-a]pyridin-3-yl)(piperidin-1-yl)methanone]	> 1.5
≤ 100	CN1CCC(NC(=O)c2cccc(-c3cccc4c(C(=O)N5CCCCC5)cnn34)c2)CC1 [Example 33, N-(1-methylpiperidin-4-yl)-3-(3-(piperidine-1-carbonyl)pyrazolo[1,5-a]pyridin-7-yl)benzamide]	> 1.5
≤ 100	O=C(c1cnn2c(Nc3ccc[nH]c3=O)cccc12)N1CCCCC1 [Example 147, 3-((3-(piperidine-1-carbonyl)pyrazolo[1,5-a]pyridin-7-yl)amino)pyridin-2(1H)-one]	> 1.5
≤ 100	O=C(c1cnn2c(-c3cccc(C=NO)c3)cccc12)N1CCCCC1 [Example 253, 3-(3-(piperidine-1-carbonyl)pyrazolo[1,5-a]pyridin-7-yl)benzaldehyde oxime]	> 1.5
≤ 100	CN1CCC(C(=O)Nc2ccc(-c3cccc4c(C(=O)N5CCCCC5)cnn34)cc2)CC1 [Example 99, 1-methyl-N-(4-(3-(piperidine-1-carbonyl)pyrazolo[1,5-a]pyridin-7-yl)phenyl)piperidine-4-carboxamide]	< 1.5
≤ 100	O=C1NCc2ccc(Nc3cccc4c(C(=O)N5CCCCC5)cnn34)cc21 [Example 212, 6-[[3-(piperidine-1-carbonyl)pyrazolo[1,5-a]pyridin-7-yl]amino]isoindolin-1-one]	> 1.5
≤ 100	O=C(c1cnn2c(-c3ccc(-c4nnn[nH]4)cc3)cccc12)N1CCCCC1 [Example 114, (7-(4-(1H-tetrazol-5-yl)phenyl)pyrazolo[1,5-a]pyridin-3-yl)(piperidin-1-yl)methanone]	> 1.5
≤ 100	CC(C)N1CCc2ccc(-c3cccc4c(C(=O)N5CCCCC5)cnn34)cc2C1=O [Example 133, 2-isopropyl-7-(3-(piperidine-1-carbonyl)pyrazolo[1,5-a]pyridin-7-yl)-3,4-dihydroisoquinolin-1(2H)-one]	> 1.5
≤ 100	O=C(c1ccc(-c2cccc3c(C(=O)N4CCCCC4)cnn23)cn1)N1CCOCC1 [Example 74, (7-(6-(morpholine-4-carbonyl)pyridin-3-yl)pyrazolo[1,5-a]pyridin-3-yl)(piperidin-1-yl)methanone]	> 1.5
≤ 100	O=C(c1cnn2c(-c3ccc(F)nc3)cccc12)N1CCCC(C(F)(F)F)C1 (centres unmarked) [Example 338, (7-(6-fluoropyridin-3-yl)pyrazolo[1,5-a]pyridin-3-yl)(3-(trifluoromethyl)piperidin-1-yl)methanone]	> 1.5
≤ 100	Cn1nccc1-c1cc(-c2cccc3c(C(=O)N4CCCCC4)cnn23)cc(N2CCOCC2)n1 [Example 369, (7-(2-(1-methyl-1H-pyrazol-5-yl)-6-morpholinopyridin-4-yl)pyrazolo[1,5-a]pyridin-3-yl)(piperidin-1-yl)methanone]	> 1.5
≤ 100	CN(C)c1ncc(-c2cccc3c(C(=O)N4CCCCC4)cnn23)cc1C#N [Example 270, 2-(dimethylamino)-5-(3-(piperidine-1-carbonyl)pyrazolo[1,5-a]pyridin-7-yl)nicotinonitrile]	> 1.5
≤ 100	O=C(NCc1ccon1)c1ccc(-c2cccc3c(C(=O)N4CCCCC4)cnn23)cc1 [Example 73, N-(isoxazol-3-ylmethyl)-4-(3-(piperidine-1-carbonyl)pyrazolo[1,5-a]pyridin-7-yl)benzamide]	> 1.5
≤ 100	O=C(c1cncc(-c2cccc3c(C(=O)N4CCCCC4)cnn23)c1)N1CC(=NO)C1 [Example 230, (3-hydroxyiminoazetidin-1-yl)-[5-[3-(piperidine-1-carbonyl)pyrazolo[1,5-a]pyridin-7-yl]-3-pyridyl]methanone]	> 1.5
≤ 100	O=C1NCc2ccc(-c3cccc4c(C(=O)N5CCC(F)(F)CC5)cnn34)cc21 [Example 234, 6-(3-(4,4-difluoropiperidine-1-carbonyl)pyrazolo[1,5-a]pyridin-7-yl)isoindolin-1-one]	> 1.5
≤ 100	O=C(c1cnn2c(-c3ccc(N(Cc4ccccc4[N+](=O)[O-])C(=O)c4cccnc4)cc3)cccc12)N1CCCCC1 [Example 340, N-(2-nitrobenzyl)-N-(4-(3-(piperidine-1-carbonyl)pyrazolo|[1,5-a]pyridin-7-yl)phenyl)nicotinamide]	> 1.5
≤ 100	O=C(c1ncc(-c2cccc3c(C(=O)N4CCCCC4)cnn23)cn1)N1CCC1 [Example 277, [7-[2-(azetidine-1-carbonyl)pyrimidin-5-yl]pyrazolo[1,5-a]pyridin-3-yl]-(1-piperidyl)methanone]	> 1.5
100 to 1000	CN1CCC(Nc2cccc3c(C(=O)N4CCCCC4)cnn23)CC1 [Example 150, (7-((1-methylpiperidin-4-yl)amino)pyrazolo[1,5-a]pyridin-3-yl)(piperidin-1-yl)methanone]	< 1.5
